Columns and labels:
Test in all cases: KINOMEscan competition binding
Settings in all cases: compound 10.0 µM
[1] = biological target: PRKCI (human) (UniProt P41743)
[2] = biological target: AKT1 (human) (UniProt P31749)
[3] = biological target: CDK7 (human) (UniProt P50613)
[4] = biological target: PRKG1 (human) (UniProt Q13976)
[5] = biological target: MAP3K3 (human) (UniProt Q99759)
[6] = biological target: ERBB2 (human) (UniProt P04626)
[7] = biological target: PIM1 (human) (UniProt P11309)
[8] = biological target: TLK2 (human) (UniProt Q86UE8)
[9] = biological target: MAP3K5 (human) (UniProt Q99683)
[10] = biological target: FGR (human) (UniProt P09769)
[11] = biological target: MET (human) (UniProt P08581)
[12] = biological target: PRKCQ (human) (UniProt Q04759)
Chain of PRKCQ (human) (Q04759 whole entry, looked up): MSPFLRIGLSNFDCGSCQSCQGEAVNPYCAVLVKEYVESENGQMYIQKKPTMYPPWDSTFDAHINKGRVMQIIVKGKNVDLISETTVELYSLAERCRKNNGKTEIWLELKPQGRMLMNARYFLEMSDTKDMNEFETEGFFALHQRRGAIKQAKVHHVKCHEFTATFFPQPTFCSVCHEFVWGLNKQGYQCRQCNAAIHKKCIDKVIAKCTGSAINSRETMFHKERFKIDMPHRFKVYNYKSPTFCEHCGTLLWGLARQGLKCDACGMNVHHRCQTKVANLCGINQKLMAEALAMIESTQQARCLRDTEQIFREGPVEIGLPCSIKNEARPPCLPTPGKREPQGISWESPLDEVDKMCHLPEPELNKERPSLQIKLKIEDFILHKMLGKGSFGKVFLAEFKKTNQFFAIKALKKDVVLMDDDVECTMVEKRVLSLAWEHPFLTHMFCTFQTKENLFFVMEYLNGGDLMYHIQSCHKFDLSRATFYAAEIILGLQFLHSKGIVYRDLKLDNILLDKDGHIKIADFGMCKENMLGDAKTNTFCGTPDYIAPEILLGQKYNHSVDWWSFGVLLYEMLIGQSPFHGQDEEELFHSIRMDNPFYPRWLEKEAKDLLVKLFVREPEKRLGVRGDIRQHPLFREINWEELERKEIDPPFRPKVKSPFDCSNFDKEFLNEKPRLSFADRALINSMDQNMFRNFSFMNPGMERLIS

[13] = biological target: MAPK9 (human) (UniProt P45984)
[14] = biological target: INSRR (human) (UniProt P14616)
[15] = biological target: MYLK2 (human) (UniProt Q9H1R3)
[16] = biological target: IRAK3 (human) (UniProt Q9Y616)
Chain of IRAK3 (human) (Q9Y616 whole entry, looked up): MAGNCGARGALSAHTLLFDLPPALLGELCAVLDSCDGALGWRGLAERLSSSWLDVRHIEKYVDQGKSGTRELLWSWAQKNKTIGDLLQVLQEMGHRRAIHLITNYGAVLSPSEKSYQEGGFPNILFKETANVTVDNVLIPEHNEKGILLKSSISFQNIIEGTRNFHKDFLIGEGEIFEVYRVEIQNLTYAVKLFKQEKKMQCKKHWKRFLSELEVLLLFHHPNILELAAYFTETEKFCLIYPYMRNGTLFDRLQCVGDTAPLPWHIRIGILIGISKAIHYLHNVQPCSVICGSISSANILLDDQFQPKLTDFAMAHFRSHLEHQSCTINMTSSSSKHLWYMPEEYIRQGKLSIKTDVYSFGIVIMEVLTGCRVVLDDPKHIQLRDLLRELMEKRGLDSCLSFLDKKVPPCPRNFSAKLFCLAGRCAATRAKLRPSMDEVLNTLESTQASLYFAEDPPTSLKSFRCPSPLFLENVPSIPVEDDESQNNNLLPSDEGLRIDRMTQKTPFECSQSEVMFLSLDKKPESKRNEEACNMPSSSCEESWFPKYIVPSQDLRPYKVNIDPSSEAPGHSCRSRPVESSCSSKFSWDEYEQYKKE

[17] = biological target: CAMK2G (human) (UniProt Q13555)
[18] = biological target: CDK9 (human) (UniProt P50750)
[19] = biological target: ITK (human) (UniProt Q08881)
Chain of ITK (human) (Q08881 whole entry, looked up): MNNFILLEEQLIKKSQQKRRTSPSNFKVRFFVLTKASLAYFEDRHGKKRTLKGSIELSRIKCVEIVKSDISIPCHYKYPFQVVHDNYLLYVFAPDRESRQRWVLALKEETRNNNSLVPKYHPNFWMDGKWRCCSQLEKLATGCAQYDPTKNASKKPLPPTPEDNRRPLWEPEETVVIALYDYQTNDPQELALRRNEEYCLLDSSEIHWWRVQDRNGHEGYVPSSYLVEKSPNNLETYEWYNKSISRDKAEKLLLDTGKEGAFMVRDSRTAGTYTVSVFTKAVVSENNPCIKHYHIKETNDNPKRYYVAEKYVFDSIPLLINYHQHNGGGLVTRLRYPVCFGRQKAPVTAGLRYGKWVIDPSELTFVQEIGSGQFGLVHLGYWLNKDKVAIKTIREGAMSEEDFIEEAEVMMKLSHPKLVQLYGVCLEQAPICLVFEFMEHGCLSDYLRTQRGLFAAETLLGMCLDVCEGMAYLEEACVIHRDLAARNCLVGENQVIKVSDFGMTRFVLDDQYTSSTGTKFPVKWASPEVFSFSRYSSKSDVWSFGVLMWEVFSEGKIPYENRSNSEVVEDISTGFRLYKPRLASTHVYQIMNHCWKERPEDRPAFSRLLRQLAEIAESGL

[20] = biological target: TAOK2 (human) (UniProt Q9UL54)
Chain of TAOK2 (human) (Q9UL54 whole entry, looked up): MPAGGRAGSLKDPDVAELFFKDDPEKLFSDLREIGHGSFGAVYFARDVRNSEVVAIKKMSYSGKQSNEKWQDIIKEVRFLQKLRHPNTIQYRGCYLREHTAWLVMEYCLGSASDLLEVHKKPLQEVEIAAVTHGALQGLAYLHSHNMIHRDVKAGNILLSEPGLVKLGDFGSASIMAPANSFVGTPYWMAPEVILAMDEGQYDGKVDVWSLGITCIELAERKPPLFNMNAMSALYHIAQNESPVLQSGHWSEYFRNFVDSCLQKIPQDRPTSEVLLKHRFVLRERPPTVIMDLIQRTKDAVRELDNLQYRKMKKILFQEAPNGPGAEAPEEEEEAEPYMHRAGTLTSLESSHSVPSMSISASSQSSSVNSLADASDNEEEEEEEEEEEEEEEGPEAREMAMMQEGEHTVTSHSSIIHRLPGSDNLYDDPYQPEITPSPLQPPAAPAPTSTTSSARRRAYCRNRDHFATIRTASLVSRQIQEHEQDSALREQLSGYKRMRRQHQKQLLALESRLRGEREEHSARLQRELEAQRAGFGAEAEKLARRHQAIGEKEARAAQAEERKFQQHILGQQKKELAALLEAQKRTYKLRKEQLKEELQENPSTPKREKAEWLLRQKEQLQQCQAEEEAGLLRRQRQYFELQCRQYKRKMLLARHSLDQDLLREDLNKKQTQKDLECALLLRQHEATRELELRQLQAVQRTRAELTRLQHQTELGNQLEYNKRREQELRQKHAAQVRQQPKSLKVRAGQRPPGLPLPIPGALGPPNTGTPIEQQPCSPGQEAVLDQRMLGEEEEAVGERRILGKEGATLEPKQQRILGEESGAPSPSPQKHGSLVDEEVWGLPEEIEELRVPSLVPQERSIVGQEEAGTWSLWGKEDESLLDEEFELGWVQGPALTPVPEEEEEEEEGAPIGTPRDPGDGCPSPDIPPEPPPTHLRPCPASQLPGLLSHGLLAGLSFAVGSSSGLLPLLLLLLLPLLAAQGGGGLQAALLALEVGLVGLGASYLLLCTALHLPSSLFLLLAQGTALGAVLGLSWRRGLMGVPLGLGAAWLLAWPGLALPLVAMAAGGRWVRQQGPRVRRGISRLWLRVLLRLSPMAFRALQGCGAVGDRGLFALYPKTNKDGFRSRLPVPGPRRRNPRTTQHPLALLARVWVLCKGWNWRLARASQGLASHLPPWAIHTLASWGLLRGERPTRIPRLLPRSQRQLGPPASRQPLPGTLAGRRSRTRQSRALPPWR

[21] = biological target: NUAK1 (human) (UniProt O60285)
[22] = biological target: DYRK2 (human) (UniProt Q92630)
[23] = biological target: NEK7 (human) (UniProt Q8TDX7)
[24] = biological target: PRKG2 (human) (UniProt Q13237)
[25] = biological target: ULK1 (human) (UniProt O75385)
[26] = biological target: PTK2 (human) (UniProt Q05397)
Chain of PTK2 (human) (Q05397 whole entry, looked up): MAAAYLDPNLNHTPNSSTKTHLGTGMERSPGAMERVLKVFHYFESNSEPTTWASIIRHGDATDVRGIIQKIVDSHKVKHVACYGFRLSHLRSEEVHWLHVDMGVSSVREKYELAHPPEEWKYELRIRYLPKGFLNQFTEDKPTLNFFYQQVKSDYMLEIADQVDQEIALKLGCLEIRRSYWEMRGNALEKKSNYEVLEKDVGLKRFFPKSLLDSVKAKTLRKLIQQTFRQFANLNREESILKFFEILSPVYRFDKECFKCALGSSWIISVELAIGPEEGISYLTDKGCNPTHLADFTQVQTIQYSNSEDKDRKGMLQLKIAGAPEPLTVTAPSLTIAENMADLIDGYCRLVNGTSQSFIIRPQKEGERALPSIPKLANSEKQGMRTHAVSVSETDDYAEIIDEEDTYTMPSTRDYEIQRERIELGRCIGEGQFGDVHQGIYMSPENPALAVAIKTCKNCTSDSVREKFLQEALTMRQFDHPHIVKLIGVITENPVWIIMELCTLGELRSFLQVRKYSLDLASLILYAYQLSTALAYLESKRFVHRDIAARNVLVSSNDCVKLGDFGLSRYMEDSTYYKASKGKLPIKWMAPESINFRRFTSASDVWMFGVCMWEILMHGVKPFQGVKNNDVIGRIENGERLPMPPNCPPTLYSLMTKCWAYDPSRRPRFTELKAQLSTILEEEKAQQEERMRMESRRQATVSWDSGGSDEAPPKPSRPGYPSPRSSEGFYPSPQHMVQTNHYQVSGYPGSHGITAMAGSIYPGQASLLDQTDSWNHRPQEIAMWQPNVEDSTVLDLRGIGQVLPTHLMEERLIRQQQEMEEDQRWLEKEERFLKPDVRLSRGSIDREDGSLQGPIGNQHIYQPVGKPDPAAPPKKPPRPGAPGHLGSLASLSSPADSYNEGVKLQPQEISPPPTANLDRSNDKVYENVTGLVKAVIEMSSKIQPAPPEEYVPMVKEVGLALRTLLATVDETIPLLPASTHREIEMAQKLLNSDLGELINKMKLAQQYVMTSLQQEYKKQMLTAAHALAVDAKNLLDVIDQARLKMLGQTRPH

[27] = biological target: CDKL1 (human) (UniProt Q00532)
[28] = biological target: PIK3CA (human) (UniProt P42336)
[29] = test system: PIK3CA (human), P42336 [M1043I]
[30] = biological target: RIOK1 (human) (UniProt Q9BRS2)
[31] = biological target: HUNK (human) (UniProt P57058)
[32] = biological target: AAK1 (human) (UniProt Q2M2I8)
[33] = biological target: CLK3 (human) (UniProt P49761)
[34] = biological target: YES1 (human) (UniProt P07947)
[35] = biological target: CDK3 (human) (UniProt Q00526)
Chain of CDK3 (human) (Q00526 whole entry, looked up): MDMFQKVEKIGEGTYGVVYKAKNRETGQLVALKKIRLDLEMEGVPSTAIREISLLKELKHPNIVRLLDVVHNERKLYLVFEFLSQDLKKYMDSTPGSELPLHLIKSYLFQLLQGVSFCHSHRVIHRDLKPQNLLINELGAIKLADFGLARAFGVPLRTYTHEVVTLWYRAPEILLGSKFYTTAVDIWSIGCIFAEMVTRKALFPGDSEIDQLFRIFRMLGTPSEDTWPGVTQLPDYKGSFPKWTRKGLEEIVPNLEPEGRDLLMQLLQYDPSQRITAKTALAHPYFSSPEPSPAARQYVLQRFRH

[36] = biological target: RIPK2 (human) (UniProt O43353)
[37] = biological target: NEK2 (human) (UniProt P51955)
[38] = biological target: CSNK1G2 (human) (UniProt P78368)
[39] = biological target: CDK2 (human) (UniProt P24941)
[40] = biological target: RET (human) (UniProt P07949)
[41] = biological target: YSK4 (human) (UniProt Q56UN5)

Chain of AKT1 (human) (P31749 whole entry, looked up): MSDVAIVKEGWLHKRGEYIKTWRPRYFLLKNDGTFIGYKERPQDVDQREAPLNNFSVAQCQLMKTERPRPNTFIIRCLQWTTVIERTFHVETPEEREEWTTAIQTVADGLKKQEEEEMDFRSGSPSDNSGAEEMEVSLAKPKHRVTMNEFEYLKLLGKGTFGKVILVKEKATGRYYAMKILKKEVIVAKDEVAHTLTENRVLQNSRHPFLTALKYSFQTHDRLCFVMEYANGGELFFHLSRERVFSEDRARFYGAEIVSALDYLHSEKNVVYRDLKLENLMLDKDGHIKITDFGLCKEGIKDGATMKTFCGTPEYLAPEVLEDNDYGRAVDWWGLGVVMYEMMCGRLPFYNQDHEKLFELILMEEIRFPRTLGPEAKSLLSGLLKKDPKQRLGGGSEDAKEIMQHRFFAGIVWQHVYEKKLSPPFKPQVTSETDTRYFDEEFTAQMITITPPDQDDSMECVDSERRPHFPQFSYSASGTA

SMILES: N#C/C(=C1/Nc2ccccc2S1)c1ccnc(NCCc2cccnc2)n1
- kinase still bound, per cent of control [1]: 80%
- kinase still bound, per cent of control [2]: 100%
- kinase still bound, per cent of control [3]: 16%
- kinase still bound, per cent of control [4]: 100%
- kinase still bound, per cent of control [5]: 74%
- kinase still bound, per cent of control [6]: 8.5%
- kinase still bound, per cent of control [7]: 4.4%
- kinase still bound, per cent of control [8]: 75%
- kinase still bound, per cent of control [9]: 100%
- kinase still bound, per cent of control [10]: 100%
- kinase still bound, per cent of control [11]: 98%
- kinase still bound, per cent of control [12]: 100%
- kinase still bound, per cent of control [13]: 0.25%
- kinase still bound, per cent of control [14]: 100%
- kinase still bound, per cent of control [15]: 100%
- kinase still bound, per cent of control [16]: 38%
- kinase still bound, per cent of control [17]: 78%
- kinase still bound, per cent of control [18]: 60%
- kinase still bound, per cent of control [19]: 100%
- kinase still bound, per cent of control [20]: 45%
- kinase still bound, per cent of control [21]: 100%
- kinase still bound, per cent of control [22]: 0.7%
- kinase still bound, per cent of control [23]: 84%
- kinase still bound, per cent of control [24]: 81%
- kinase still bound, per cent of control [25]: 36%
- kinase still bound, per cent of control [26]: 100%
- kinase still bound, per cent of control [27]: 45%
- kinase still bound, per cent of control [28]: 100%
- kinase still bound, per cent of control [29]: 84%
- kinase still bound, per cent of control [30]: 30%
- kinase still bound, per cent of control [31]: 92%
- kinase still bound, per cent of control [32]: 10%
- kinase still bound, per cent of control [33]: 76%
- kinase still bound, per cent of control [34]: 81%
- kinase still bound, per cent of control [35]: 100%
- kinase still bound, per cent of control [36]: 81%
- kinase still bound, per cent of control [37]: 96%
- kinase still bound, per cent of control [38]: 77%
- kinase still bound, per cent of control [39]: 90%
- kinase still bound, per cent of control [40]: 100%
- kinase still bound, per cent of control [41]: 3.2%

SMILES: CCc1nc(-c2cccc(C)c2)c(-c2ccnc(NC(=O)c3ccccc3)c2)s1
- kinase still bound, per cent of control [1]: 100%
- kinase still bound, per cent of control [2]: 100%
- kinase still bound, per cent of control [3]: 100%
- kinase still bound, per cent of control [4]: 100%
- kinase still bound, per cent of control [5]: 92%
- kinase still bound, per cent of control [6]: 43%
- kinase still bound, per cent of control [7]: 87%
- kinase still bound, per cent of control [8]: 87%
- kinase still bound, per cent of control [9]: 100%
- kinase still bound, per cent of control [10]: 52%
- kinase still bound, per cent of control [11]: 94%
- kinase still bound, per cent of control [12]: 100%
- kinase still bound, per cent of control [13]: 0%
- kinase still bound, per cent of control [14]: 100%
- kinase still bound, per cent of control [15]: 96%
- kinase still bound, per cent of control [16]: 84%
- kinase still bound, per cent of control [17]: 100%
- kinase still bound, per cent of control [18]: 95%
- kinase still bound, per cent of control [19]: 100%
- kinase still bound, per cent of control [20]: 86%
- kinase still bound, per cent of control [21]: 100%
- kinase still bound, per cent of control [22]: 99%
- kinase still bound, per cent of control [23]: 100%
- kinase still bound, per cent of control [24]: 100%
- kinase still bound, per cent of control [25]: 69%
- kinase still bound, per cent of control [26]: 96%
- kinase still bound, per cent of control [27]: 100%
- kinase still bound, per cent of control [28]: 100%
- kinase still bound, per cent of control [29]: 95%
- kinase still bound, per cent of control [30]: 100%
- kinase still bound, per cent of control [31]: 15%
- kinase still bound, per cent of control [32]: 96%
- kinase still bound, per cent of control [33]: 78%
- kinase still bound, per cent of control [34]: 5.6%
- kinase still bound, per cent of control [35]: 100%
- kinase still bound, per cent of control [36]: 1.2%
- kinase still bound, per cent of control [37]: 95%
- kinase still bound, per cent of control [38]: 19%
- kinase still bound, per cent of control [39]: 100%
- kinase still bound, per cent of control [40]: 66%
- kinase still bound, per cent of control [41]: 64%

SMILES: O=c1[nH]c2ccccc2n1C1CCN(Cc2ccc(-c3nc4cc5[nH]cnc5cc4nc3-c3ccccc3)cc2)CC1
- kinase still bound, per cent of control [1]: 79%
- kinase still bound, per cent of control [2]: 77%
- kinase still bound, per cent of control [3]: 82%
- kinase still bound, per cent of control [4]: 88%
- kinase still bound, per cent of control [5]: 83%
- kinase still bound, per cent of control [6]: 86%
- kinase still bound, per cent of control [7]: 93%
- kinase still bound, per cent of control [8]: 100%
- kinase still bound, per cent of control [9]: 83%
- kinase still bound, per cent of control [10]: 100%
- kinase still bound, per cent of control [11]: 39%
- kinase still bound, per cent of control [12]: 94%
- kinase still bound, per cent of control [13]: 91%
- kinase still bound, per cent of control [14]: 100%
- kinase still bound, per cent of control [15]: 86%
- kinase still bound, per cent of control [16]: 100%
- kinase still bound, per cent of control [17]: 100%
- kinase still bound, per cent of control [18]: 100%
- kinase still bound, per cent of control [19]: 97%
- kinase still bound, per cent of control [20]: 85%
- kinase still bound, per cent of control [21]: 100%
- kinase still bound, per cent of control [22]: 88%
- kinase still bound, per cent of control [23]: 82%
- kinase still bound, per cent of control [24]: 91%
- kinase still bound, per cent of control [25]: 78%
- kinase still bound, per cent of control [26]: 95%
- kinase still bound, per cent of control [27]: 84%
- kinase still bound, per cent of control [28]: 77%
- kinase still bound, per cent of control [29]: 100%
- kinase still bound, per cent of control [30]: 76%
- kinase still bound, per cent of control [31]: 72%
- kinase still bound, per cent of control [32]: 100%
- kinase still bound, per cent of control [33]: 100%
- kinase still bound, per cent of control [34]: 100%
- kinase still bound, per cent of control [35]: 100%
- kinase still bound, per cent of control [36]: 64%
- kinase still bound, per cent of control [37]: 100%
- kinase still bound, per cent of control [38]: 59%
- kinase still bound, per cent of control [39]: 92%
- kinase still bound, per cent of control [40]: 76%
- kinase still bound, per cent of control [41]: 75%

— the kinase profiling compilation of Christmann-Franck et al. (2016)
